#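 Each compound was tested at five concentrations against cells in 96-well plates for 48 hours. Definition used: TGI = concentration required for complete inhibition of growth.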
# Experiments:
# Experiment in all cases: growth of human tumour cells (NCI), 48 h
# [1] = system: OVCAR-8 ovarian
# [2] = system: HL-60(TB) leukemia
# [3] = system: HT29 colon
# [4] = system: CAKI-1 renal
# [5] = system: UACC-62 melanoma
# [6] = system: SK-MEL-28 melanoma
# [7] = system: SK-MEL-5 melanoma
# [8] = system: SF-539 CNS
# [9] = system: NCI-H522 lung
# [10] = system: CCRF-CEM leukemia
# [11] = system: NCI-H460 lung
# [12] = system: HOP-18 NSCLC
structure (smiles),measurement,setting,value
COc1cc(C(=O)O[C@@H]2[C@@H](OC(=O)c3cc(OC)c(OC)c(OC)c3)[C@@H](OC)O[C@@H]3CO[C@@H](c4ccccc4)O[C@@H]23)cc(OC)c1OC,TGI,[1],> 100 µM
same,TGI,[2],> 100 µM
same,TGI,[3],> 100 µM
same,TGI,[4],> 100 µM
same,TGI,[5],> 100 µM
same,TGI,[6],> 100 µM
same,TGI,[7],> 100 µM
same,TGI,[8],> 100 µM
same,TGI,[9],> 100 µM
same,TGI,[10],> 100 µM
same,TGI,[11],> 100 µM
CN(C)Cc1cc(C(C)(C)C)ccc1-c1ccc(C(C)(C)C)cc1CN(C)C,TGI,[1],> 100 µM
same,TGI,[2],> 100 µM
same,TGI,[3],> 100 µM
same,TGI,[4],> 100 µM
same,TGI,[5],> 100 µM
same,TGI,[6],> 100 µM
same,TGI,[7],> 100 µM
same,TGI,[8],> 100 µM
same,TGI,[9],> 100 µM
same,TGI,[10],> 100 µM
same,TGI,[11],> 100 µM
CCOC(=O)c1sc(N/N=C2\NC(=O)/C(=C/c3ccc([N+](=O)[O-])cc3)S2)nc1C,TGI,[1],65.2 µM
same,TGI,[2],51.8 µM
same,TGI,[3],51 µM
same,TGI,[4],60.5 µM
same,TGI,[5],73.4 µM
same,TGI,[6],> 100 µM
same,TGI,[7],31 µM
same,TGI,[8],40.7 µM
same,TGI,[9],40.9 µM
same,TGI,[10],35.4 µM
same,TGI,[11],48.2 µM
O=C(C[n+]1ccccc1)N/N=C(\Cc1nc2ccc([N+](=O)[O-])cc2[nH]c1=O)C(=O)Nc1cc(Cl)c(Cl)cc1Cl,TGI,[1],> 100 µM
same,TGI,[2],> 100 µM
same,TGI,[3],> 100 µM
same,TGI,[4],> 100 µM
same,TGI,[5],> 100 µM
same,TGI,[6],> 100 µM
same,TGI,[7],> 100 µM
same,TGI,[8],> 100 µM
same,TGI,[9],> 100 µM
same,TGI,[10],> 100 µM
same,TGI,[11],> 100 µM
Clc1ccccc1C1=NN(c2ccccc2)C2c3ccccc3OCC12 (stereo unspecified),TGI,[1],> 100 µM
same,TGI,[12],> 100 µM
same,TGI,[2],> 100 µM
same,TGI,[3],> 100 µM
same,TGI,[6],> 100 µM
same,TGI,[7],> 100 µM
same,TGI,[9],> 100 µM
same,TGI,[10],> 100 µM
same,TGI,[11],> 100 µM
Cc1nn(C(=O)c2ccncc2)c2c1C(c1ccccc1)SC(N)=N2 (stereo unspecified),TGI,[1],> 10 µM
same,TGI,[2],> 10 µM
same,TGI,[3],> 10 µM
same,TGI,[4],> 10 µM
same,TGI,[5],> 10 µM
same,TGI,[6],> 10 µM
same,TGI,[7],> 10 µM
same,TGI,[8],> 10 µM
same,TGI,[9],> 10 µM
same,TGI,[10],> 10 µM
same,TGI,[11],> 10 µM
COc1cc(C2SC(N)=Nc3c2c(C)nn3C(=O)c2ccccc2O)ccc1O (stereo unspecified),TGI,[1],> 10 µM
same,TGI,[2],> 4.56 µM
same,TGI,[3],> 10 µM
same,TGI,[4],> 10 µM
same,TGI,[5],> 10 µM
same,TGI,[6],> 10 µM
same,TGI,[7],> 10 µM
same,TGI,[8],> 2.31 µM
same,TGI,[9],> 10 µM
same,TGI,[10],> 10 µM
same,TGI,[11],> 10 µM
C/C=C1/CN2CCC3(O)c4ccccc4N4C=C(C(=O)OC)C1CC2C43O (stereo unspecified),TGI,[1],> 100 µM
same,TGI,[2],> 100 µM
same,TGI,[3],> 100 µM
same,TGI,[4],> 100 µM
same,TGI,[5],> 100 µM
same,TGI,[6],> 100 µM
same,TGI,[7],> 100 µM
same,TGI,[8],> 100 µM
same,TGI,[9],> 100 µM
same,TGI,[10],> 100 µM
same,TGI,[11],> 100 µM
CCOP(=O)(C/C=C/Cn1nc(Br)c(=O)[nH]c1=O)OCC,TGI,[1],> 100 µM
same,TGI,[2],> 100 µM
same,TGI,[3],> 100 µM
same,TGI,[4],> 100 µM
same,TGI,[5],> 100 µM
same,TGI,[6],> 100 µM
same,TGI,[7],> 100 µM
same,TGI,[8],> 100 µM
same,TGI,[9],> 100 µM
same,TGI,[10],> 100 µM
same,TGI,[11],> 100 µM
NC(=O)c1coc(C2OC(CO)C(O)C2O)n1 (stereo unspecified),TGI,[12],> 100 µM
same,TGI,[2],> 100 µM
same,TGI,[3],> 100 µM
same,TGI,[5],> 100 µM
same,TGI,[6],> 100 µM
same,TGI,[8],> 100 µM
same,TGI,[9],> 100 µM
same,TGI,[10],> 100 µM
same,TGI,[11],> 100 µM

# Reference: PubChem BioAssay (NCI)
